Source: ChEMBL document CHEMBL3991601, “The target landscape of clinical kinase drugs” (Science, 2017)
Active and inactive are the calls of the source.

What was measured:
UMP-CMP kinase = molecular target: T1, UMP-CMP kinase (Homo sapiens, UniProt P30085)
T1 sequence (P30085 whole entry): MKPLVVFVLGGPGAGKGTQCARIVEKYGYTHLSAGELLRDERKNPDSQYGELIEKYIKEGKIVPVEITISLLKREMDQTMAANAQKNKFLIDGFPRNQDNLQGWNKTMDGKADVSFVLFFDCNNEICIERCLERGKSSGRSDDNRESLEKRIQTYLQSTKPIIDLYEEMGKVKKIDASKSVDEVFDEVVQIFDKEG

[1] = molecular target: Tyrosine-protein kinase Fgr (Homo sapiens, UniProt P09769)
Tyrosine-protein kinase Fgr, sequence (P09769 whole entry): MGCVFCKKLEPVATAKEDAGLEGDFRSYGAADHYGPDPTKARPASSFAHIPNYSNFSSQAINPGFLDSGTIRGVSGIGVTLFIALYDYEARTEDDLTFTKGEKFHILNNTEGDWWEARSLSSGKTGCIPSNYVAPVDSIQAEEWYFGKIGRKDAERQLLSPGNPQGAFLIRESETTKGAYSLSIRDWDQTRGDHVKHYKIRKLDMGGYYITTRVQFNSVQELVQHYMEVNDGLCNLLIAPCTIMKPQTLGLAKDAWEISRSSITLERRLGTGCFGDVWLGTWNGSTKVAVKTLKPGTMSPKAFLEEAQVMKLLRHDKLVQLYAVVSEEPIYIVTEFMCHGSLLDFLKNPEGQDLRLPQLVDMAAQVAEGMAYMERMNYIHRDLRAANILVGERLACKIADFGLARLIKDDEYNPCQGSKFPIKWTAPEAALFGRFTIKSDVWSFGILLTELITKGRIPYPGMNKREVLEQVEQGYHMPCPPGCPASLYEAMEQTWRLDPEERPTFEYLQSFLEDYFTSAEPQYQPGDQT

[2] = molecular target: Eukaryotic peptide chain release factor GTP-binding subunit ERF3B (Homo sapiens, UniProt Q8IYD1)
Eukaryotic peptide chain release factor GTP-binding subunit ERF3B, sequence (Q8IYD1 whole entry): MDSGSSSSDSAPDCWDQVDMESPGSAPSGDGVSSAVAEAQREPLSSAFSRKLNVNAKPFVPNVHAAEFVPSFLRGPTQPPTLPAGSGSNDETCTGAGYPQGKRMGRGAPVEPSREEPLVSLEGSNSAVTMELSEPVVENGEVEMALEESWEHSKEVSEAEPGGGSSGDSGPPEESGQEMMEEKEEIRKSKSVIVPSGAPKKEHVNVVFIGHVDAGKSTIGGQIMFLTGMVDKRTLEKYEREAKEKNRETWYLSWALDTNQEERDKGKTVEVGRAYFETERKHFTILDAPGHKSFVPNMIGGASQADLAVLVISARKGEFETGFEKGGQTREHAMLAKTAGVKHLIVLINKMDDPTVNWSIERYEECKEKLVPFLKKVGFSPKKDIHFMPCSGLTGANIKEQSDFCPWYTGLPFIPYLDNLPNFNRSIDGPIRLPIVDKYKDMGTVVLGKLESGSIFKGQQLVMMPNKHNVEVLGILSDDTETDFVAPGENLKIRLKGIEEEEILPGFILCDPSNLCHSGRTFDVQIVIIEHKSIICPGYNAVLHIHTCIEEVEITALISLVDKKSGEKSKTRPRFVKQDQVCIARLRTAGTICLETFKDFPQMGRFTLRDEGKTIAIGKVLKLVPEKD

Misshapen-like kinase 1 = Misshapen-like kinase 1 (Homo sapiens, UniProt Q8N4C8)
Misshapen-like kinase 1, sequence (Q8N4C8 whole entry): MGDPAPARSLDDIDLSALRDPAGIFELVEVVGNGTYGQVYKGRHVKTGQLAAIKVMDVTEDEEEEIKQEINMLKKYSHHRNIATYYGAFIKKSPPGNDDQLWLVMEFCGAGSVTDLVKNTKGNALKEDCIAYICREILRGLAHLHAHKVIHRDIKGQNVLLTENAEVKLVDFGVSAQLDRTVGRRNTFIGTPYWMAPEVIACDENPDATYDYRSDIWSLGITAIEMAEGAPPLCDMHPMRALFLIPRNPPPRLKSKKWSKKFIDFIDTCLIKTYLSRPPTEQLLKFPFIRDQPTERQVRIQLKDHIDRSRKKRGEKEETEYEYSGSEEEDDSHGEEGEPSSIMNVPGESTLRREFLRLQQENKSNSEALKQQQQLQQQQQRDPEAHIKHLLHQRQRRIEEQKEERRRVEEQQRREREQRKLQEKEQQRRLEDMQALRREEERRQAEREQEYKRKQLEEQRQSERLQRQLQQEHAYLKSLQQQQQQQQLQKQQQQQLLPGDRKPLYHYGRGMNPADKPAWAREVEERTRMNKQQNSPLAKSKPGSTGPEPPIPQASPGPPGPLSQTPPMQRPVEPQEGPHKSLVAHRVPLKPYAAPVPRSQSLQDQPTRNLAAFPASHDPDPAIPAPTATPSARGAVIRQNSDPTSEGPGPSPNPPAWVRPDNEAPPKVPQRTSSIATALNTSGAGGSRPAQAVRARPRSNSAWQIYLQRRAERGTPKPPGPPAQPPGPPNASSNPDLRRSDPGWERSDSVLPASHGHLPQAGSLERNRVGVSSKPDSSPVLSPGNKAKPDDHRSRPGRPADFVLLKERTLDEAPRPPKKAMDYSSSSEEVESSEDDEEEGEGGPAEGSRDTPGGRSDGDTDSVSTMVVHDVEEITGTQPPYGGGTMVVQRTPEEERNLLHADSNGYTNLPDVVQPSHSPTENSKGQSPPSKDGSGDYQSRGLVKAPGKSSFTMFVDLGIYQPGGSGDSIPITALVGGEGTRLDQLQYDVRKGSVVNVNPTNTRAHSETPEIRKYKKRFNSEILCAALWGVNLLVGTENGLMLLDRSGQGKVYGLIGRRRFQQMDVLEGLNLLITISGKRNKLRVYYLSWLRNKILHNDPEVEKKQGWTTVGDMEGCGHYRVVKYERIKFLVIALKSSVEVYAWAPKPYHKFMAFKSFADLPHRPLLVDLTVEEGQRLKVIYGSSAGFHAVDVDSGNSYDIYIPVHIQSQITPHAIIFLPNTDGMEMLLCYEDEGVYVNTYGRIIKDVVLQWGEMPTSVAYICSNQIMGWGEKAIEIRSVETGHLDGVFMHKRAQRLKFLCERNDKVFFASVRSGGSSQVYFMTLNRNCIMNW

[3] = molecular target: Phosphatidylethanolamine-binding protein 1 (Homo sapiens, UniProt P30086)
Phosphatidylethanolamine-binding protein 1, sequence (P30086 whole entry): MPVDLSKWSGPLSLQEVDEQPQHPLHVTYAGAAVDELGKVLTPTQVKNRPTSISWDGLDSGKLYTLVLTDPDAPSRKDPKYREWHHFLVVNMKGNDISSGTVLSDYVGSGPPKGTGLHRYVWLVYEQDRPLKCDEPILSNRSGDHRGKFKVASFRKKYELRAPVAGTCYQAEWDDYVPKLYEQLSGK

[4] = molecular target: Serine/threonine-protein kinase 38 (Homo sapiens, UniProt Q15208)
Serine/threonine-protein kinase 38, sequence (Q15208 whole entry): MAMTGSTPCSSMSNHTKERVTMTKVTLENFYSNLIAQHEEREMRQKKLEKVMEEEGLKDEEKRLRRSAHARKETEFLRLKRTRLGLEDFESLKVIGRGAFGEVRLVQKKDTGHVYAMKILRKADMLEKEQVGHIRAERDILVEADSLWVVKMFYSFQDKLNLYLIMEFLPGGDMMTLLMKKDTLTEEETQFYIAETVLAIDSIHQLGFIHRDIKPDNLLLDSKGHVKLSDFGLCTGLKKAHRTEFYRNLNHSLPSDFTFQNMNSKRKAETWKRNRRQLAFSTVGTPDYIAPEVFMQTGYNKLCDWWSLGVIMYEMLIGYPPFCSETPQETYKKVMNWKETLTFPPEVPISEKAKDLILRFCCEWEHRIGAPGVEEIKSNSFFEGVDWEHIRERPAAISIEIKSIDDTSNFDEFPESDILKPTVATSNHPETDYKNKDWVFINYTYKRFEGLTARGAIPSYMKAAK

[5] = molecular target: T2, Thyroid hormone receptor-associated protein 3 (Homo sapiens, UniProt Q9Y2W1)
T2 sequence (Q9Y2W1 whole entry): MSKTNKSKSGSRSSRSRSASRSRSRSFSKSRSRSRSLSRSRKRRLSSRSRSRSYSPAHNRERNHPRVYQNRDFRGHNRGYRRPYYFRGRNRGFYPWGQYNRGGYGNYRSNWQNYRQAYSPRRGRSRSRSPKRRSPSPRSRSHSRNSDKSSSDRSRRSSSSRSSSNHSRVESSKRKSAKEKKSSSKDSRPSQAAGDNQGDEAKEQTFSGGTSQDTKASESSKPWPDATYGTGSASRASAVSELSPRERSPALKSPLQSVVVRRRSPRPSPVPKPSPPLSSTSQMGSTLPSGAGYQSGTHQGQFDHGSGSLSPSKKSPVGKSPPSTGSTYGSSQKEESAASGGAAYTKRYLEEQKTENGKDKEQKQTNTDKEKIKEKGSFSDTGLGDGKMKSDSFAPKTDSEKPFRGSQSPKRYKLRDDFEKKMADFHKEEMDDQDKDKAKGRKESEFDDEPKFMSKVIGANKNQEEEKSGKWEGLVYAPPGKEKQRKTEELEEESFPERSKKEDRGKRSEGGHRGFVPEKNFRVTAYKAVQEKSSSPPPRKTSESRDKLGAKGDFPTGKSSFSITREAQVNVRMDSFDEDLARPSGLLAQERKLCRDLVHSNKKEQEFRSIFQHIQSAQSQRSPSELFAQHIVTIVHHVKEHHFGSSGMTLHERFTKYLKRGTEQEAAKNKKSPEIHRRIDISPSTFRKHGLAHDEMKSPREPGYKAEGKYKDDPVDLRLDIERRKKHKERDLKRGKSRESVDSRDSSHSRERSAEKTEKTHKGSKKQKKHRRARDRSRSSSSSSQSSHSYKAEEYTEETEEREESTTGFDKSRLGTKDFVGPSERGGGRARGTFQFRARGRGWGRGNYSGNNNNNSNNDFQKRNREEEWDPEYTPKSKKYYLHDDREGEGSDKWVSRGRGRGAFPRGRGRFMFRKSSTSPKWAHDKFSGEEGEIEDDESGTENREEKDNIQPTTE

Measured: Kd
Note: in the data inactive means no Kd found up to 30 µM.

NC[C@@](O)(c1ccc(Cl)cc1)c1ccc(-c2cn[nH]c2)cc1 [AT-13148]
inactive: UMP-CMP kinase > 30 µM | [1] > 30 µM | [2] > 30 µM | Misshapen-like kinase 1 > 30 µM | [3] > 30 µM | [4] > 30 µM | [5] > 30 µM
